system: phospho-Serine 318 ATG13 (pATG13), ULK kinase substrate, in A549 (KRAS mutant) cells; test: pATG13 levels of mutant KRas A549 cells after treatment with ULK inhibitors in combination with trametinib (ELISA); format: cell-based, human; conditions: with 250 nM trametinib
Procedure: Example 177. Cellular Inhibition of ULK Kinase Substrate ATG13 Protein pATG13 Levels of Mutant KRas A549 Cells after Treatment with ULK Inhibitors in Combination with Trametinib
A549 (KRAS mutant) human lung cancer cells (6,000 cells/well) were added to a 384-well tissue-culture treated plate in 50 μL of pre-warmed DMEM medium supplemented with 10% characterized fetal bovine serum (Invitrogen, Carlsbad, Calif.), 100 units/mL penicillin G, and 100 μg/mL streptomycin and allowed to grow overnight at 37° C., 5% CO2, and 95% humidity. The following day, 10 μL of media containing trametinib or DMSO as a control was added to wells. The final concentration of trametinib in wells was 250 nM. A dose response of a test compound (0.6 μL per well) was added. DMSO (0.6 μL) was added to control wells. The plate was briefly shaken to mix wells and then incubated at 37° C. overnight. The next day, the media was aspirated and cells were washed with Dulbecco's Phosphate Buffered Saline (Gibco). Cells were lysed using MPER lysis buffer (Pierce, Rockford, Ill.) containing Halt Phosphatase and Protease Inhibitors (Pierce, Rockford, Ill.) and Phosphatase inhibitor cocktail 2 (Sigma, St. Louis, Mo.) at 4° C. for 10 minutes with shaking.
Cellular levels of phospho-Serine 318 ATG13 (pATG13) were measured via an ELISA method. Total ATG13 Antibody (Cell Signaling Cat #13273) was used to coat the wells. The plate was incubated at 4° C. overnight and washed with ELISA wash buffer (Biolegend Cat #421601). The wells were then blocked with assay diluent (Biolegend Cat #421203) for 1 hour at room temperature. Plate wells were washed with ELISA wash buffer. Cell lysate was added to wells and incubated at room temperature for 2 hours. Plate wells were washed with ELISA wash buffer. Biotinylated pS318-ATG13 antibody (Rockland Immunochemicals Cat #600-401-C49) was diluted in assay diluent and added to each well and incubated at room temperature for 1 hour. Plate wells were washed with ELISA wash buffer. Streptavidin linked to horseradish peroxidase (Thermo Fisher Cat #21140) was diluted in assay diluent and added to each well and incubated at room temperature for 1 hour. Plate wells were washed with ELISA wash buffer. High sensitivity TMB substrate (Biolegend Cat #421101) was added to each well and incubated at room temperature for 20 minutes. The reaction was stopped with 2N Sulfuric Acid. The plate was analyzed at on a plate reader measuring absorbance at 450 nm and 540 nm (background). Signal was calculated by first subtracting the background absorbance at 540 nm from the absorbance at 450 nm for each well. Next, the background corrected absorbance at 450 nm from blank wells was subtracted from test wells. Data was compared to control wells to determine % ATG13 phosphorylation. GraphPad Prism was used to calculate IC50 values.

IC50 | SMILES
100 to 300 nM | Cc1nn(CCCN2CCCC2)cc1Nc1ncc(C(F)(F)F)c(NCCCN2CCCCC2=O)n1 [Example 20]

molecular target: T1, ULK1 kinase (Homo sapiens, UniProt O75385); test: Biochemical assay for ULK1.2 (coupled pyruvate kinase/lactate dehydrogenase assay); conditions: 19 nM ULK1 (Eurofins), myelin basic protein, 1 mM ATP
T1 construct: purchased Eurofins 14-959
T1 sequence (O75385 with tags, fused parts or gaps): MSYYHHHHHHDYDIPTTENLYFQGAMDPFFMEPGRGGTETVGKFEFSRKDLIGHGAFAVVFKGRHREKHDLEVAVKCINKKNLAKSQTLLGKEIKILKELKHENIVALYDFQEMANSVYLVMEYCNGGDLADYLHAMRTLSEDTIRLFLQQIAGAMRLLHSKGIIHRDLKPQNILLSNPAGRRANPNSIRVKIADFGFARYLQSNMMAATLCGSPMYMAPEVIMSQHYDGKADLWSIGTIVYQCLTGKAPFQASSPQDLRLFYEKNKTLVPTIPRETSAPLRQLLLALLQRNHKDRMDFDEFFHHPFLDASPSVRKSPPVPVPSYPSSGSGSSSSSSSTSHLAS
Procedure: Example 174. Biochemical Assay for ULK1.2
Activity of ULK1 kinase was determined spectroscopically using a coupled pyruvate kinase/lactate dehydrogenase assay that continuously monitors the ATP hydrolysis-dependent oxidation of NADH (e.g., Schindler et al. Science (2000) 289: 1938-1942). Assays were conducted in 384-well plates (100 uL final volume) using 19 nM ULK1 (Eurofins CAT #14-959), 0.25 mg/mL myelin basic protein, 1.5 units pyruvate kinase, 2.1 units lactate dehydrogenase, 1 mM phosphoenol pyruvate, 0.28 mM NADH and 1 mM ATP in assay buffer (100 mM Tris, pH 7.5, 15 mM MgCl2, 0.5 mM DTT, 0.1% octyl-glucoside, 0.002% (w/v) BSA, and 0.002% Triton X-100). Inhibition of ULK1 was measured by adding serial diluted test compound (final assay concentration of 1% DMSO). A decrease in absorption at 340 nm was monitored continuously for 6 hours at 30° C. on a multi-mode microplate reader (BioTek). The reaction rate was calculated using the 2-3 h time frame. The reaction rate at each concentration of compound was converted to percent inhibition using controls (i.e. reaction with no test compound and reaction with a known inhibitor) and IC50 values were calculated by fitting a four-parameter sigmoidal curve to the data using Prism (GraphPad software).

SMILES | IC50
CC(C)CN1CC(n2cc(Nc3ncc(Cl)c(NCCCN4CCCCC4=O)n3)cn2)C1 [Example 11] | 100 to 500 nM
Cc1nn(CCCN2CCCC2)cc1Nc1ncc(C(F)(F)F)c(NCCCN2CCCCC2=O)n1 [Example 20] | 25 to 100 nM
Cc1nn([C@@H]2CCNC2)cc1Nc1ncc(C(F)(F)F)c(NCCCN2CCCC2=O)n1 [Example 169] | 100 to 500 nM
CC(C)N1CCC(n2cc(Nc3ncc(Cl)c(NCCCN4CCCCC4=O)n3)cn2)CC1 [Example 5] | 25 to 100 nM
CN1CCN(CCCNc2nc(Nc3cnn(C4CCN(C5CC5)CC4)c3)ncc2Cl)C1=O [Example 148] | 100 to 500 nM
[2H]C([2H])([2H])N1CCC(n2cc(Nc3ncc(Cl)c(NCCCN4CCCCC4=O)n3)c(C)n2)CC1 [Example 57] | 100 to 500 nM
Cc1nn(C2CN(CC(C)C)C2)cc1Nc1ncc(Br)c(NCCCN2CCCC2=O)n1 [Example 154] | > 500 nM
CC(C)CN1CC(n2cc(Nc3ncc(C(F)(F)F)c(NCCCN4CCCCCC4=O)n3)cn2)C1 [Example 97] | 1 to 25 nM
Cc1nn([C@@H]2CCN(C)C2)cc1Nc1ncc(Cl)c(NCCCN2CCCC2=O)n1 [Example 160] | > 500 nM
CC1(C)CCC(=O)N1CCCNc1nc(Nc2cnn(C3CCN(C4CC4)CC3)c2)ncc1Cl [Example 149] | 100 to 500 nM
Cc1nn(CCN2CCOCC2)cc1Nc1ncc(Br)c(NCCCN2CCCCC2=O)n1 [Example 63] | > 500 nM
CCc1nn(C2CCN(C)CC2)cc1Nc1ncc(Cl)c(NCCCN2CCCCC2=O)n1 [Example 55] | 100 to 500 nM
Cc1nn(CCCN(C)C)cc1Nc1ncc(C(F)(F)F)c(NCCCN2CCCCC2=O)n1 [Example 35] | 25 to 100 nM
Cc1nn([C@H]2CCNC2)cc1Nc1ncc(C(F)(F)F)c(NCCCN2CCCC2=O)n1 [Example 167] | 100 to 500 nM
Cc1nn([C@@H]2CCN(C)C2)cc1Nc1ncc(Cl)c(NCCCN2CCOCCC2=O)n1 [Example 134] | 100 to 500 nM
Cc1nn([C@@H]2CCN(C)C2)cc1Nc1ncc(Cl)c(NCCCN2CCCCC2=O)n1 [Example 24] | 100 to 500 nM

SMILES | IC50
Cc1nn(CCCN2CCOCC2)cc1Nc1ncc(C(F)(F)F)c(NCCCN2CCCOCC2=O)n1 [Example 112] | 100 to 500 nM
CN1CCC(n2cc(Nc3ncc(C(F)(F)F)c(NCCCN4CCN(C)C4=O)n3)cn2)CC1 [Example 151] | 1 to 25 nM
Cc1nn(CCN2CCOCC2)cc1Nc1ncc(Cl)c(NCCCN2CCCC2=O)n1 [Example 163] | > 500 nM
CCN1CCC(n2cc(Nc3ncc(Br)c(NCCCN4CCCCC4=O)n3)c(C)n2)CC1 [Example 50] | 25 to 100 nM
CC1CCN(CCCNc2nc(Nc3cnn(C4CCN(C5CC5)CC4)c3)ncc2Cl)C1=O (stereo not shown) [Example 155] | 100 to 500 nM
Cc1nn([C@@H]2CCNC2)cc1Nc1ncc(Cl)c(NCCCN2CCCC2=O)n1 [Example 158] | > 500 nM
[2H]C([2H])([2H])N1CCC(n2cc(Nc3ncc(C(F)(F)F)c(NCCCN4CCCCC4=O)n3)c(CC)n2)CC1 [Example 52] | 1 to 25 nM
CN1CCC(n2cc(Nc3ncc(C(F)(F)F)c(NCCCN4CCCCC4=O)n3)cn2)CC1 [Example 10] | 1 to 25 nM
Cc1nn(C2CN(CC(C)C)C2)cc1Nc1ncc(Cl)c(NCCCN2CCCC2=O)n1 [Example 161] | > 500 nM
[2H]C([2H])([2H])N1CCC(n2cc(Nc3ncc(Br)c(NCCCN4CCCCC4=O)n3)c(C)n2)CC1 [Example 49] | 1 to 25 nM
Cc1nn(CCN2CCCC2)cc1Nc1ncc(Cl)c(NCCCN2CCCC2=O)n1 [Example 162] | > 500 nM
Cc1nn(CCCN2CCCCC2)cc1Nc1ncc(C(F)(F)F)c(NCCCN2CCCCC2=O)n1 [Example 28] | 25 to 100 nM
Cc1nn(CCN2CCCCC2)cc1Nc1ncc(C(F)(F)F)c(NCCCN2CCCCC2=O)n1 [Example 22] | 100 to 500 nM
Cc1nn(CCCN2CCOCC2)cc1Nc1ncc(C(F)(F)F)c(NCCCN2CCCCC2=O)n1 [Example 30] | 100 to 500 nM
CCc1nn(C2CCN(CC)CC2)cc1Nc1ncc(Cl)c(NCCCN2CCCCC2=O)n1 [Example 46] | 100 to 500 nM

Further lines, results first:

IC50 | SMILES
1 to 25 nM | Cc1nn([C@H]2CCNC2)cc1Nc1ncc(C(F)(F)F)c(NCCCN2CCCCC2=O)n1 [Example 65]
1 to 25 nM | Cc1nn([C@@H]2CCNC2)cc1Nc1ncc(C(F)(F)F)c(NCCCN2CCCCC2=O)n1 [Example 34]
1 to 25 nM | Cc1nn(C2CCN(C3CCCC3)CC2)cc1Nc1ncc(C(F)(F)F)c(NCCCN2CCCCCC2=O)n1 [Example 93]
1 to 25 nM | Cc1nn(C2CCN(C3CCC3)CC2)cc1Nc1ncc(C(F)(F)F)c(NCCCN2CCCCCC2=O)n1 [Example 92]
1 to 25 nM | CCc1nn(C2CCN(C)CC2)cc1Nc1ncc(C(F)(F)F)c(NCCCN2CCCCC2=O)n1 [Example 47]
25 to 100 nM | CCc1nn(C2CCN(CC)CC2)cc1Nc1ncc(C(F)(F)F)c(NCCCN2CCCCC2=O)n1 [Example 42]
1 to 25 nM | CC(C)N1CCC(n2cc(Nc3ncc(C(F)(F)F)c(NCCCN4CCCCCC4=O)n3)cn2)CC1 [Example 88]
25 to 100 nM | CCc1nn(C2CCN(C(C)C)CC2)cc1Nc1ncc(C(F)(F)F)c(NCCCN2CCCCC2=O)n1 [Example 43]
25 to 100 nM | Cc1nn([C@@H]2CCN(C(C)C)C2)cc1Nc1ncc(C(F)(F)F)c(NCCCN2CCCCC2=O)n1 [Example 36]
1 to 25 nM | CCN1CCC(n2cc(Nc3ncc(C(F)(F)F)c(NCCCN4CCCCC4=O)n3)c(C)n2)CC1 [Example 37]
100 to 500 nM | CCN1CCC(n2cc(Nc3ncc(C(F)(F)F)c(NCCCN4CCCC4=O)n3)c(C)n2)CC1 [Example 82]
1 to 25 nM | Cc1nn([C@@H]2CCN(C(C)C)C2)cc1Nc1ncc(C(F)(F)F)c(NCCCN2CCCCCC2=O)n1 [Example 95]
1 to 25 nM | Cc1nn(C2CCN(CC(C)C)CC2)cc1Nc1ncc(C(F)(F)F)c(NCCCN2CCCCCC2=O)n1 [Example 89]
1 to 25 nM | Cc1nn(C2CCN(C(C)C)CC2)cc1Nc1ncc(C(F)(F)F)c(NCCCN2CCCCCC2=O)n1 [Example 85]
1 to 25 nM | Cc1nn(C2CN(CC(C)C)C2)cc1Nc1ncc(C(F)(F)F)c(NCCCN2CCCC2=O)n1 [Example 128]
1 to 25 nM | [2H]C([2H])([2H])N1CCC(n2cc(Nc3ncc(C(F)(F)F)c(NCCCN4CCCCCC4=O)n3)c(C)n2)CC1 [Example 101]
25 to 100 nM | Cc1nn(C2CCN(C(C)C)CC2)cc1Nc1ncc(Cl)c(NCCCN2CCCCCC2=O)n1 [Example 87]
1 to 25 nM | Cc1nn(C2CCN(CC3CC3)CC2)cc1Nc1ncc(C(F)(F)F)c(NCCCN2CCCCC2=O)n1 [Example 19]
25 to 100 nM | CCc1nn(C2CCN(C(C)C)CC2)cc1Nc1ncc(C(F)(F)F)c(NCCCN2CCCOC2=O)n1 [Example 70]
25 to 100 nM | Cc1nn(C2CCN(CCF)CC2)cc1Nc1ncc(C(F)(F)F)c(NCCCN2CCCCC2=O)n1 [Example 59]

Reference: patent US11518758B2, “Heteroarylaminopyrimidine amide autophagy inhibitors and methods of use thereof” (Deciphera Pharmaceuticals, LLC, priority 2019, dated 2022)
